Measurements reported in patent US12234223B2, “Phthalazinone compound, and preparation method therefor and medical use thereof” (SHANGHAI JEMINCARE PHARMACEUTICALS CO., LTD, priority 2020, dated 2025).
pIC50: −log10 of the molar value.

Assays:
VCaP cells = assay: Inhibitory effect on VCaP cell proliferation (Cell Titer Glo); format: cell-based; conditions: Homo sapiens, 144 h; for pIC50: VCaP cells, 5% FBS and 0.1 nM R1881, 6 days; for Emax: maximum degree of VCaP cell proliferation inhibition, 6 days
Description: A tumor cell line Vcap (ATCC Cat. No. CRL-2876) was respectively cultured with DMEM (Gibco Cat. No. 11965-092) medium containing 10% FBS (Gibco Cat. No. 10099-141C). During testing, Vcap cells were replaced with a DMEM culture fluid containing 5% FBS and 0.1 nM R1881 (Sigma Cat. No. R0908). The assay method was as follows:
Vcap cells were seeded to a 384-well plate (Perkin Elmer Cat. No. 6007460) at a cell density of 1200 cells/well and a volume of 20 μL/well; after the cells were incubated overnight in a carbon dioxide incubator (Thermo), the prepared compound solutions with different concentrations were added at a volume of 5 μL/well; meanwhile, a corresponding solvent was provided as a control; after the cells were continuously incubated in the incubator for 6 days, the cell plate and the contents thereof were equilibrated to room temperature; 25 μL of a Cell Titer Glor (Promega Cat. No. G7573) reagent was added to each well; after vibration and uniform mixing, incubation in the dark was performed for 10-30 minutes, and a signal value was detected with Envision microplate reader (PerkinElmer).
A percentage inhibition rate of compound-treated wells was calculated through solvent control wells on the plate, GraphPad prism was used to fit the percentage inhibition rate data corresponding to different concentrations, and IC50 value was calculated by a 4-parameter nonlinear logistic formula.
Emax: a maximum degree of VCaP cell proliferation inhibition. IC50: a compound concentration required to achieve half the maximum degree of VCaP cell proliferation inhibition.

Androgen receptor = molecular target: T1, Androgen receptor (Homo sapiens, UniProt P10275); assay: Androgen receptor In-Cell-Western assay (AR degradation in VCaP cells); format: cell-based; conditions: 24 hours treatment; for DC50: concentration for half the maximum degradation degree of AR in VCaP cells; for Dmax: maximum degradation degree of AR in VCaP cells
T1 construct: Dmax: a maximum degradation degree of AR in VCaP cells; endogenous in cells; host or cells: VCaP cells
T1 sequence (P10275 1-920): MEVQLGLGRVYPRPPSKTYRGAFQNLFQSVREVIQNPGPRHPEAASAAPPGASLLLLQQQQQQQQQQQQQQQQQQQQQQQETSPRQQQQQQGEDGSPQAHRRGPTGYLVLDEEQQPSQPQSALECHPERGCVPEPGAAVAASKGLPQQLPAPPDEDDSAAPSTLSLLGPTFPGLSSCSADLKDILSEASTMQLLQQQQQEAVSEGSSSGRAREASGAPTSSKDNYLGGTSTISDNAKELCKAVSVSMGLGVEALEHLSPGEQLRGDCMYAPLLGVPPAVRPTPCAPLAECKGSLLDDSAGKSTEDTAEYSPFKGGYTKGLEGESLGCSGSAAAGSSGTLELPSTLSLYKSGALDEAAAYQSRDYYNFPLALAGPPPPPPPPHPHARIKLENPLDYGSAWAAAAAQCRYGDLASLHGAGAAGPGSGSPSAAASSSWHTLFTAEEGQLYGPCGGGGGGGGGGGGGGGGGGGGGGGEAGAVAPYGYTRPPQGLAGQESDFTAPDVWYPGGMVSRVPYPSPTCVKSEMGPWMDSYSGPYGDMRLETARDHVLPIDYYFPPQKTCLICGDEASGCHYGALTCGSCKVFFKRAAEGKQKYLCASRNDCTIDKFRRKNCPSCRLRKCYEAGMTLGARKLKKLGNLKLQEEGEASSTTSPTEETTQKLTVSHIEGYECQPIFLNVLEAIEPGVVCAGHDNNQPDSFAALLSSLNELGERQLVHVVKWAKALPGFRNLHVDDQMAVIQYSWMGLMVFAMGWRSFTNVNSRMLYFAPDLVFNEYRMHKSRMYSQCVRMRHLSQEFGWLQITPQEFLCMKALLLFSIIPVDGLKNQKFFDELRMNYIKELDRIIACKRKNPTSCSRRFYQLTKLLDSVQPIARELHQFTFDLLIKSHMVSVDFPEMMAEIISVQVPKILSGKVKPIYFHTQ
Description: This assay evaluated compound performance in VCap cells. An intracellular androgen receptor was assayed by In-Cell-Western according to the assay procedure described below.
In a 96-well cell culture plate (Corning 3599) pretreated by poly-D-Lysin, Vcap cells were seeded to a Vcap cell assay medium [phenol red containing DMEM (Gibco Cat. No.: 11995065); fetal bovine serum FBS (Gibco Cat. No.: 10099141C)] at a volume of 100 μL/well and a cell density of 50,000 cells/well. Cells were cultured for at least two days. • 1. First, cells were treated with a compound. The compound was subjected to a gradient dilution by using DMSO and a cell culture medium, so that DMSO contained in the cell culture plate was diluted to 0.5%: a polypropylene plate was used according to the following protocol: • (1) (i) A 200× stock solution plate was prepared in DMSO; (ii) a 10 mM stock solution was diluted at 1:4 (10 μL stock solution+40 μL DMSO=2000 uM) with DMSO to enter row 2; (iii) a 1:4 (10 μL protac+40 μL DMSO) gradient dilution was performed from row 2 to row 9, row 1 was reserved for a 2000 uM reference compound and row 10 was reserved for DMSO. (iv) There were 8 concentrations (the final concentrations on the 200× plate was 2000 uM, 400 uM, 80 uM, etc.) in total. (2) (i) A 3× stock solution was prepared in the medium; (ii) 3 μL of the 200× stock solution was transferred to 197 μL of the medium (by a 12-channel pipette, from row 1 to row 10), i.e. a 3× stock solution plate. (iii) Uniform mixing was performed for the stock solution plate. (3) (i) The medium of Vcap cells was replaced with a fresh medium, with the medium volume of 100 μL. (ii) The uniformly-mixed 3× stock solution was transferred to the cell culture plate (by the 12-channel pipette, 50 μL of the stock solution was transferred from row 1 to row 10). (iii) The cells were cultured for 24 hours. • 2. The expression level of the intracellular androgen receptor after compound treatment was detected, and assay was performed according to the following method. • (1) (i) An equal volume of 8% paraformaldehyde was added to the cell culture plate for cell fixation. A fixative solution in the cell plate was discarded, and the cell plate was washed three times with PBS. (ii) A Triton solution was prepared (the stock solution was diluted at 1:1000). The solution in the cell plate was discarded, and a volume of 200 μL of a Triton diluent was added to each well. (iii) A 2× blocking solution was prepared (a 10× blocking stock solution was diluted at 1:4). The solution in the cell plate was discarded, and a volume of 100 μL of the 2× blocking solution was added to each well. (iv) A primary antibody solution (Androgen receptor Rabbit mAb, Cell Signaling Technology Cat. No.: 5153; 1:1000 dilution) was prepared. The solution in the cell plate was discarded, a volume of 100 μL of a primary antibody diluent was added to each well, and incubation was performed at 4 degrees overnight. (v) The primary antibody solution was discarded, and the cell plate was washed with 1× Wash buffer (Wash buffer in the present application means a washing buffer solution). (vi) A secondary antibody solution (Goat anti Rabbit IgG (H+L) Secondary Antibody, HRP, Thermo Cat. No.: 31460; 1:5000 dilution) was prepared, and a volume of 100 μL of a secondary antibody diluent was added to each well for incubation. (vii) The secondary antibody solution in the cell plate was discarded, and the cell plate was washed with 1× Wash buffer. (viii) A TMB chromogenic solution (BD Cat. No.: 550534) was prepared, and a volume of 100 μL of the chromogenic solution was added to each well. (ix) A volume of 50 μL of a stop solution (BD Cat. No.: 550534) was added to each well. (x) Absorption values at OD 450 nm and 570 nm were read by EnVision. (2) (i) Normalized analysis was performed for the number of cells in each well. The solution in the cell plate was discarded, and the cell plate was washed three times with wash buffer. […]

Row | pIC50 (VCaP cells) | DC50 (Androgen receptor) [µM] | Dmax (Androgen receptor) [%] | SMILES | Emax (VCaP cells) [%]
1 | 7.35 | 0.032 | 109 | CC1(C)[C@H](NC(=O)c2cnc(N3CCC(CN4CCN(c5ccc6c(=O)n(C7CCC(=O)NC7=O)ncc6c5)CC4)CC3)c(F)c2)C(C)(C)[C@H]1Oc1ccc(C#N)c(Cl)c1 (some centres unmarked) [Compound 26] | 60
2 | 7.48 | 0.0072 | 101 | CC1(C)[C@H](NC(=O)c2ccc(N3CCC(CN4CCN(c5ccc6c(=O)n([C@@H]7CCC(=O)NC7=O)ncc6c5)CC4)CC3)cc2)C(C)(C)[C@H]1Oc1ccc(C#N)c(Cl)c1 [Compound 28B] | 71
